Here are results for one compound from US5512569A, “Aminoalkyl benzothiazolinones” (Adir et Compagnie, priority 1994, dated 1996).

The data set concerns catalepsigenic effect. The data set can be described thus: Investigation into the catalepsigenic effect in rats. The class given is in vivo, Wistar rats. The following applies: 2 mg.kg^-1, same study conditions (IP, rats, 30-minute interval). On the procedure: The catalepsigenic effect is investigated in rats via the intraperitoneal route. This test predicts the existence of side effects of extrapyramidal type. 6 groups of Wistar rats received an injection of the compounds of the invention and were then tested for their catalepsigenic activity after a 30-minute interval. Haloperidol is used as reference.

Compound `O=C(CCCN1CCC(O)(c2ccc(Cl)cc2)CC1)c1ccc(F)cc1` [haloperidol] showed a catalepsigenic effect of 95%.
